Measurements published in patent US20220333153A1, “ULTRASENSITIVE ELECTROCHEMICAL BIOSENSORS” (MOLECULAR WAREHOUSE, LTD., priority 2016, published 2022).

Assays:
[1] = GDH enzymatic activity of the chimeric proteins themselves; type: biochemical
Procedure: (§1) The GDH enzyme assay was performed as described by Yu et al.^20 Briefly, the 1.5-mL assay system consisted of 20 mM glucose, 0.6 mM phenazine methosulfate, 0.06 mM […], 10 mM MOPS (pH 7.0), and corresponding concentration of CaCl2 and enzyme. The enzymatic assay was performed at 25° C. by monitoring the reduction in the absorbance of […] at 600 nm.
We conjectured that dislocation of either of these residues will impact the catalysis and if carried out in a reversible fashion could utilized for controlling enzymes activity. To test this idea we inserted calmodulin (CaM) domain into GDH at the position 330 and produced the resulting CaM-GDH chimeric protein (SEQ ID NO: 10) in recombinant form. […] The activity of fully activated fusion represented 50% of activity of the wild-type protein. […] We therefore concluded that we successfully constructed a peptide regulated GDH biosensor module.
We next decided to test if the developed allosteric module can be used to construct a generic biosensor architecture. To this end we fused the developed CaM-GDH chimera C-terminally with rapamycin-binding FKBP domain (SEQ ID NO: 11) and produced the protein in recombinant form. […] We then constructed a fusion between FKBP binding partner FRB and CaM-BP that would associate with the former reporter molecule in the rapamycin dependent fashion. […]

[2] = test system: affinity clamp-GDH chimera (SEQ ID NO: 25); test: OFF switch: inhibition of GDH activity of affinity clamp-GDH chimera by PDZ peptides; type: biochemical; conditions: 10 nM chimera; 1 μM strong or 2 μM weak peptide ligand
From the text: (§2) FIG. 5. Development and applications of an OFF switch biosensor based on GDH. […] (C) as in B but using the biosensor with the optimized linkers between the affinity clamp and the GDH, titrated with the increasing concentrations of the strong ligand peptide. (D) A dissociative biosensor architecture based on the developed affinity clamp-GDH biosensor. The star denotes the ligand either genetically fused or conjugated to the regulatory domain. (E) Exemplification of the design shown in D with a biosensor for IL18: the ligand is IL18 and the binder is IL18 binding protein. […] (G) As in D but using a binder that competitively associates with the receptor domain and is dislodged by the binding of the ligand.
as §1
So far all presented biosensor architectures were designed to increase the GDH activity upon association with the analyte. While this is a common strategy it creates potential problems when binding of two protein modules to a single small molecule is required. […]

[3] = biological target: PDZ domain binding peptide; conditions: read-out: affinity for PDZ domain binding peptide; cited from earlier work
[4] = test system: affinity clamp-GDH IL18 binding protein chimera (SEQ ID NO: 37) with IL18-affinity-clamp ligand fusion (SEQ ID NO: 38); test: IL18 dissociative biosensor, GDH activity; type: biochemical; conditions: 10 nM SEQ ID NO: 37, 50 nM SEQ ID NO: 38; 0 to 2.5 μM IL18
From the text: as §2
The developed GDH —based OFF switch can be converted into biosensors of small molecules and biological polymers such as proteins and nucleic acids by fusing it to the appropriate binding domains (FIG. 5D) FIG. 5E depicts an IL18 biosensor that was generated incorporating a GDH-based OFF switch based on a fusion with IL18 binding protein, where the ligand is IL18 and the binder IL18 binding protein.

CaM-GDH chimeric protein: PQQ-GDH with calmodulin domain inserted at position 330, recombinant
GDH activity of the protein without activating ligand ([1]; absence of CaM-BP / activating ligand): some GDH activity
activity of fully activated fusion as share of activity of the wild-type protein ([1]; fully activated by CaM-BP): 50%

RGSIDTWV (PDZ peptide (ePDZ ligand, high affinity)) [SEQ ID NO: 27]
inhibition of GDH activity of affinity clamp-GDH chimera [2]: stronger inhibition of GDH activity than the weaker ligand

B1: affinity clamp: circularly permutated Erbin PDZ domain linked to engineered fibronectin type III (FN3) (protein)
chain: EDAPESPELGFSISGGVGGRGNPFRPDDDGIFVTRVQPEGPASKLLQPGDKIIQANGYSFINIEHGQAVSLLKTFQNTVELIIVREVGNGAKQEIRVRVEKDGGSGGVSSVPTNLEVVAATPTSLLISWDAYRELPVSYYRITYGETGGNSPVQEFTVPGSKSTATISGLKPGVDYTITVYAHYNYHYYSSPISINYRGPG
modifications: ePDZ domain
Kd [3]: < 1 nM

B2: IL18: cytokine analyte of the dissociative biosensor (protein)
chain: GYFGKLESKLSVIRNLNDQVLFIDQGNRPLFEDMTDSDSRDNAPRTIFIISMYKDSQPRGMAVTISVKSEKISTLSSENKIISFKEMNPPDNIKDTKSDIIFFQRSVPGHDNKMQFESSSYEGYFLASEKERDLFKLILKKEDELGDRSIMFTVQNEDG
modifications: Interleukin-18
notes: cytokine analyte of the dissociative biosensor
detection by IL18 biosensor (GDH activity) [4]: dose-dependent detection
